Results as given in US8952024B2, “Herbicidal pyrimidone derivatives” (E I du Pont de Nemours and Company, priority 2009, dated 2015).

Legend:
Assay in all cases: Test B pre-/postemergence plant response
Format in all cases: in vivo
[1] = tested on: downy bromegrass (Bromus tectorum)
How it was run: (§1)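 Test compounds, formulated in a non-phytotoxic solvent mixture with surfactant, are applied to the soil surface (loam and sand blend) right after seeding, or sprayed over plants at the 1- to 4-leaf stage grown in peat moss/vermiculite medium. After 13 to 15 days under glasshouse conditions, each species is scored visually from 0 (no effect) to 100 (complete control) against controls.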

[2] = tested on: goosegrass (Eleusine indica)
How it was run: as §1

[3] = tested on: giant foxtail (Setaria faberii)
How it was run: as §1

[4] = tested on: blackgrass (Alopecurus myosuroides)
How it was run: as §1

[5] = tested on: johnsongrass (Sorghum halepense)
How it was run: as §1

[6] = tested on: velvetleaf (Abutilon theophrasti)
How it was run: as §1

soybean (Glycine max) = tested on: soybean (Glycine max)
How it was run: as §1

corn (Zea mays) = tested on: corn (Zea mays)
How it was run: as §1

wild oat (Avena fatua) = tested on: wild oat (Avena fatua)
How it was run: as §1

[7] = tested on: morningglory (Ipomoea coccinea)
How it was run: as §1

[8] = tested on: large crabgrass (Digitaria sanguinalis)
How it was run: as §1

[9] = tested on: cocklebur (Xanthium strumarium)
How it was run: as §1

[10] = tested on: green foxtail (Setaria viridis)
How it was run: as §1

[11] = tested on: yellow nutsedge (Cyperus esculentus)
How it was run: as §1

[12] = tested on: Surinam grass (Brachiaria decumbens)
How it was run: as §1

kochia (Kochia scoparia) = tested on: kochia (Kochia scoparia)
How it was run: as §1

[13] = tested on: woolly cupgrass (Eriochloa villosa)
How it was run: as §1

[14] = Postemergence, 31 g ai/ha, 0 to 100 scale (0 no effect, 100 complete control)
[15] = Postemergence, 125 g ai/ha, scale 0 to 100 (0 no effect, 100 complete control)
[16] = Postemergence, 250 g ai/ha, scale 0 to 100 (0 no effect, 100 complete control), 13 to 15 days
[17] = Postemergence, 62 g ai/ha, scale 0 to 100 (0 no effect, 100 complete control)
[18] = Preemergence, 31 g ai/ha, scale 0 to 100 (0 no effect, 100 complete control)
[19] = Preemergence, 62 g ai/ha, scale 0 to 100, 0 no effect, 100 complete control
[20] = Preemergence, 125 g ai/ha, scale 0 to 100, 0 no effect, 100 complete control
[21] = Preemergence, 250 g ai/ha, 0 to 100 scale

## CCCCn1c(C2CC2)ncc(C(=O)C2=C(O)CCCC2=O)c1=O [Compound 193]
[1]; [14]
  Plant response rating, Bromegrass, Downy: 10
[1]; [15]
  Plant response rating, Bromegrass, Downy: 40
[1]; [16]
  Plant response rating, Bromegrass, Downy: 85
[1]; [17]
  Plant response rating, Bromegrass, Downy: 30
[1]; [18]
  Plant response rating, Bromegrass, Downy: 0
[1]; [19]
  Plant response rating, Bromegrass, Downy: 5
[1]; [20]
  Plant response rating, Bromegrass, Downy: 5
[1]; [21]
  Bromegrass, Downy plant response rating: 50
[2]; [14]
  Plant response rating, Goosegrass: 85
[2]; [15]
  Plant response rating, Goosegrass: 98
[2]; [16]
  Plant response rating, Goosegrass: 100
[2]; [17]
  Plant response rating, Goosegrass: 95
[2]; [18]
  Plant response rating, Goosegrass: 98
[2]; [19]
  Plant response rating, Goosegrass: 100
[2]; [20]
  Plant response rating, Goosegrass: 100
[2]; [21]
  Goosegrass plant response rating: 100
[3]; [14]
  Plant response rating, Foxtail, Giant: 75
[3]; [15]
  Plant response rating, Foxtail, Giant: 95
[3]; [16]
  Plant response rating, Foxtail, Giant: 100
[3]; [17]
  Plant response rating, Foxtail, Giant: 85
[3]; [18]
  Plant response rating, Foxtail, Giant: 0
[3]; [19]
  Plant response rating, Foxtail, Giant: 65
[3]; [20]
  Plant response rating, Foxtail, Giant: 70
[3]; [21]
  Foxtail, Giant plant response rating: 80
[4]; [14]
  Plant response rating, Blackgrass: 10
[4]; [15]
  Plant response rating, Blackgrass: 40
[4]; [16]
  Plant response rating, Blackgrass: 60
[4]; [17]
  Plant response rating, Blackgrass: 15
[4]; [18]
  Plant response rating, Blackgrass: 0
[4]; [19]
  Plant response rating, Blackgrass: 0
[4]; [20]
  Plant response rating, Blackgrass: 30
[4]; [21]
  Blackgrass plant response rating: 70
[5]; [14]
  Plant response rating, Johnsongrass: 50
[5]; [15]
  Plant response rating, Johnsongrass: 70
[5]; [16]
  Plant response rating, Johnsongrass: 80
[5]; [17]
  Plant response rating, Johnsongrass: 65
[5]; [18]
  Plant response rating, Johnsongrass: 0
[5]; [19]
  Plant response rating, Johnsongrass: 0
[5]; [20]
  Plant response rating, Johnsongrass: 15
[5]; [21]
  Johnsongrass plant response rating: 60
[6]; [14]
  Plant response rating, Velvetleaf: 90
[6]; [16]
  Plant response rating, Velvetleaf: 100
[6]; [17]
  Plant response rating, Velvetleaf: 100
[6]; [18]
  Plant response rating, Velvetleaf: 85
[6]; [19]
  Plant response rating, Velvetleaf: 100
[6]; [20]
  Plant response rating, Velvetleaf: 100
[6]; [21]
  Velvetleaf plant response rating: 100
Soybean (Glycine max); [14]
  Plant response rating, Soybean: 80
Soybean (Glycine max); [16]
  Plant response rating, Soybean: 100
Soybean (Glycine max); [17]
  Plant response rating, Soybean: 98
Soybean (Glycine max); [18]
  Plant response rating, Soybean: 40
Soybean (Glycine max); [19]
  Plant response rating, Soybean: 60
Soybean (Glycine max); [20]
  Plant response rating, Soybean: 60
Soybean (Glycine max); [21]
  Soybean plant response rating: 80
Corn (Zea mays); [14]
  Plant response rating, Corn: 0
Corn (Zea mays); [15]
  Plant response rating, Corn: 40
Corn (Zea mays); [16]
  Plant response rating, Corn: 60
Corn (Zea mays); [17]
  Plant response rating, Corn: 15
Corn (Zea mays); [18]
  Plant response rating, Corn: 0
Corn (Zea mays); [19]
  Plant response rating, Corn: 0
Corn (Zea mays); [20]
  Plant response rating, Corn: 5
Corn (Zea mays); [21]
  Corn plant response rating: 5
Wild oat (Avena fatua); [14]
  Plant response rating, Oat, Wild: 0
Wild oat (Avena fatua); [16]
  Plant response rating, Oat, Wild: 75
Wild oat (Avena fatua); [17]
  Plant response rating, Oat, Wild: 50
Wild oat (Avena fatua); [18]
  Plant response rating, Oat, Wild: 5
Wild oat (Avena fatua); [19]
  Plant response rating, Oat, Wild: 5
Wild oat (Avena fatua); [20]
  Plant response rating, Oat, Wild: 30
Wild oat (Avena fatua); [21]
  Oat, Wild plant response rating: 60
[7]; [14]
  Plant response rating, Morningglory: 40
[7]; [15]
  Plant response rating, Morningglory: 65
[7]; [16]
  Plant response rating, Morningglory: 90
[7]; [17]
  Plant response rating, Morningglory: 60
[7]; [18]
  Plant response rating, Morningglory: 75
[7]; [19]
  Plant response rating, Morningglory: 90
[7]; [20]
  Plant response rating, Morningglory: 95
[7]; [21]
  Morningglory plant response rating: 95
[8]; [14]
  Plant response rating, Crabgrass, Large: 75
[8]; [15]
  Plant response rating, Crabgrass, Large: 98
[8]; [16]
  Plant response rating, Crabgrass, Large: 100
[8]; [17]
  Plant response rating, Crabgrass, Large: 90
[8]; [18]
  Plant response rating, Crabgrass, Large: 100
[8]; [19]
  Plant response rating, Crabgrass, Large: 100
[8]; [20]
  Plant response rating, Crabgrass, Large: 100
[8]; [21]
  Crabgrass, Large plant response rating: 100
[9]; [14]
  Plant response rating, Cocklebur: 95
[9]; [15]
  Plant response rating, Cocklebur: 100
[9]; [16]
  Plant response rating, Cocklebur: 100
[9]; [17]
  Plant response rating, Cocklebur: 95
[9]; [19]
  Plant response rating, Cocklebur: 75
[9]; [21]
  Cocklebur plant response rating: 95
[10]; [14]
  Plant response rating, Foxtail, Green: 40
[10]; [15]
  Plant response rating, Foxtail, Green: 60
[10]; [16]
  Plant response rating, Foxtail, Green: 80
[10]; [17]
  Plant response rating, Foxtail, Green: 50
[10]; [18]
  Plant response rating, Foxtail, Green: 5
[10]; [19]
  Plant response rating, Foxtail, Green: 50
[10]; [20]
  Plant response rating, Foxtail, Green: 50
[10]; [21]
  Foxtail, Green plant response rating: 98
[11]; [14]
  Plant response rating, Nutsedge, Yellow: 60
[11]; [15]
  Plant response rating, Nutsedge, Yellow: 75
[11]; [16]
  Plant response rating, Nutsedge, Yellow: 75
[11]; [17]
  Plant response rating, Nutsedge, Yellow: 65
[11]; [18]
  Plant response rating, Nutsedge, Yellow: 10
[11]; [19]
  Plant response rating, Nutsedge, Yellow: 65
[11]; [20]
  Plant response rating, Nutsedge, Yellow: 70
[11]; [21]
  Nutsedge, Yellow plant response rating: 90
[12]; [14]
  Plant response rating, Surinam Grass: 65
[12]; [16]
  Plant response rating, Surinam Grass: 95
[12]; [17]
  Plant response rating, Surinam Grass: 65
[12]; [18]
  Plant response rating, Surinam Grass: 0
[12]; [19]
  Plant response rating, Surinam Grass: 15
[12]; [20]
  Plant response rating, Surinam Grass: 30
[12]; [21]
  Surinam Grass plant response rating: 45
Kochia (Kochia scoparia); [14]
  Plant response rating, Kochia: 20
Kochia (Kochia scoparia); [15]
  Plant response rating, Kochia: 100
Kochia (Kochia scoparia); [16]
  Plant response rating, Kochia: 100
Kochia (Kochia scoparia); [17]
  Plant response rating, Kochia: 80
Kochia (Kochia scoparia); [18]
  Plant response rating, Kochia: 20
Kochia (Kochia scoparia); [19]
  Plant response rating, Kochia: 70
Kochia (Kochia scoparia); [20]
  Plant response rating, Kochia: 80
Kochia (Kochia scoparia); [21]
  Kochia plant response rating: 90
[13]; [14]
  Plant response rating, Cupgrass, Woolly: 75
[13]; [15]
  Plant response rating, Cupgrass, Woolly: 95
[13]; [16]
  Plant response rating, Cupgrass, Woolly: 98
[13]; [17]
  Plant response rating, Cupgrass, Woolly: 85
[13]; [18]
  Plant response rating, Cupgrass, Woolly: 10
[13]; [19]
  Plant response rating, Cupgrass, Woolly: 70
[13]; [20]
  Plant response rating, Cupgrass, Woolly: 80
[13]; [21]
  Cupgrass, Woolly plant response rating: 90
